According to patent publication US20210353579A1, “HIGH PENETRATION COMPOSITIONS AND USES THEREOF” (Techfields Pharma Co., Ltd., priority 2006, published 2021):

How the values were obtained:
[1] = Plasma levels after transdermal administration to hairless mice; type: in vivo; settings: mouse, in vivo
Experimental: Tested compounds (20% solution or suspension in 1 mL isopropanol) are administered transdermally to the skin of intact hairless mice. The plasma levels of the parent compounds are determined by HPLC.

mice = experiment: Analgesic activity, acetic acid writhing; type: in vivo
Experimental: The prodrug compounds are administered either transdermally or orally. The parent compounds are administered orally. The number of writhing that occurred when mice are administered the acetic acid solution are counted, and the rate of inhibition based on the control group which was not pretreated with any test compounds is calculated. […] The A group is the control group.

rats = experiment: Antipyretic activity, E. coli suspension as pyrogen; type: in vivo; settings: in °C (unit assumed)
Experimental: Rats are administered with sterilized E. coli suspension as a pyrogen. Each group of rats are administered with a prodrug compounds or parent compounds at a dosage specified below. The prodrug compounds are administered either orally or transdermally. The parent compounds are administered orally.

[2] = system: Human breast cancer cells (BCAP-37); experiment: Human breast cancer xenograft in nude mice, topical; settings: day 42, 30 μl of 5% (1.5 mg) topically every 8 hours from day 14; for Tumor size: control 800 ± 100
Experimental: Human breast cancer cells (BCAP-37, 2-3 mm^3 of tumor tissue was used in each mouse) are subcutaneously xenografted into the front leg of nude mice (BALB, 12 groups, 7 mice each group). […] Then 30 μl of 5% (equal to 1.5 mg of the HPPs) diethylaminoethyl acetylsalicylate.acetylsalicylic acid salt (P-1, in acetone); 1-piperidinepropyl 2[(2,6-dichlorophenyl)amino]benzene acetate.AcOH (P-2, in water), 1-pyrrolidinepropyl 2-(3-benzoylphenyl) propionate.AcOH (P-3, in water), 4-piperidinemethyl 2-(3-phenoxyphenyl)propionate.AcOH (P-4, in water), 3-piperidinemethyl 2-(ρ-isobutylphenyl) propionate.AcOH (P-5, in water), diethylaminoethyl 1-(p-chlorobenzoyl)-5-methoxy-2-methylindole 3-acetate.AcOH (P-11, in water), 2-(4-morpholinyl)ethyl (Z)-5-fluoro-2-methyl-1-[(4-methylsulfinyl) phenylmethylene]-1H-indene-3-acetate.AcOH (P-12, in water), diethylaminoethyl

human skin tissue = settings: pH 7.4
rat = settings: rats
Experimental: The acute toxicity of the prodrug compounds and parent compounds are measured by LD50 of rat.

[3] = system: Human colon cancer cells (LS174J); experiment: Human colon cancer xenograft in nude mice, topical; settings: day 30, about 30 μl of 5% solution (1.5 mg) topically applied
Description: Human colon cancer cells (LS174J, 2-3 mm^3 of tumor tissue was used in each mouse) are subcutaneously xenografted into the front leg of nude mice (BALB).

Chinese white rabbits = experiment: Malassezia-induced lesions similar to psoriasis; type: in vivo, rabbit; settings: 5% aqueous solution twice per day, 10 days after application
Description: Heavy suspensions of Malassezia [Rosenberg, E. W., et al., Mycopathologia, 72, 147-154 (1980)] were applied to the shaved skin on the backs of the Chinese white rabbits (n=4×6) twice (at 7 am and 7 pm) per day for 2 weeks, lesions similar to psoriasis resulted.

[4] = 50 mg/kg transdermally, 60 minutes before acetic acid
[5] = 100 mg/kg transdermally, 30 min before acetic acid
[6] = 100 mg/kg transdermally, 60 minutes before acetic acid
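For LD50 of HPP in this document: acute toxicity in rats expressed as LD50, determined for both prodrugs and their parent compounds.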

Compound	Peak plasma concentration of parent compound after prodrug compound [1] [mg/L]	Tumor size [2] [mm^3]	In vitro penetration rate (apparent flux), prodrug compounds (human skin tissue) [μg/cm^2/h]	LD50 of HPP (rat) [g/kg]	Tumor size [3] [mm^3]	t, time to peak plasma level of parent compound after prodrug compound [1] [min]	% (rate of writhing inhibition) (mice; [5]) [%]	No. of Writhing (mice; [5])	body temperature, t = 0 min (rats; 100 mg/kg transdermally)	body temperature, t = 90 min (rats; 100 mg/kg transdermally)	body temperature, t = 180 min (rats; 100 mg/kg transdermally)	body temperature, t = 270 min (rats; 100 mg/kg transdermally)	other results
CN(C)CCCC(=O)OC1=C(C(=O)Nc2ccccn2)N(C)S(=O)(=O)c2ccccc21.Cl [4-N,N-dimethylaminobutyryloxy-2-methyl-N-2-pyridinyl-2H,1,2-benzothiazine-3-carboxamide 1,1-dioxide.HCl]	20	390 ± 50	1700	0.55									% (rate of writhing inhibition) (mice; [4]): 55%; No. of Writhing (mice; [4]): 15.6; body temperature, t = 0 min (rats; 25 mg/kg transdermally): 37.57 ± 0.06; body temperature, t = 90 min (rats; 25 mg/kg transdermally): 36.51 ± 0.05; body temperature, t = 180 min (rats; 25 mg/kg transdermally): 36.40 ± 0.06; body temperature, t = 270 min (rats; 25 mg/kg transdermally): 36.45 ± 0.07
CC(=O)O.O=C(Cc1ccccc1Nc1c(Cl)cccc1Cl)OCCCN1CCCCC1 [P-2, 1-piperidinepropyl 2[(2,6-dichlorophenyl)amino]benzene acetate.AcOH]		180 ± 50			480 ± 180								Mouse weight ([2]; control 22 ± 2): 22 ± 2 g; Mouse weight [3]: 22 ± 2 g
CC(=O)O.CC(C(=O)OCCCN1CCCC1)c1cccc(C(=O)c2ccccc2)c1 (centres unmarked) [P-3, 1-pyrrolidinepropyl 2-(3-benzoylphenyl) propionate.AcOH]		200 ± 50			500 ± 150								
CC(=O)O.CC(C(=O)OCC1CCNCC1)c1cccc(Oc2ccccc2)c1 (centres unmarked) [P-4, 4-piperidinemethyl 2-(3-phenoxyphenyl)propionate.AcOH]		180 ± 50			480 ± 120								
CC(=O)O.Nc1c(CC(=O)OCCN2CCOCC2)cccc1C(=O)c1ccccc1 [P-16, 2-(4-morpholinyl)ethyl 2-amino-3-benzoylbenzeneacetate.AcOH]					550 ± 150								
CC(=O)O.CCc1cccc2c3c([nH]c12)C(CC)(CC(=O)OCCN(CC)CC)OCC3 (centres unmarked) [diethylaminoethyl 1,8-diethyl-1,3,4,9-tetrahydropyrano-[3,4-b]indole-1-acetate.AcOH]	20		1300	0.6		50	60	14.0	37.23 ± 0.06	36.65 ± 0.06	36.58 ± 0.08	36.60 ± 0.07	lesions similar to psoriasis (Chinese white rabbits): the lesions were resolved
CC(=O)O.CCN(CC)CCOC(=O)Cc1ccccc1Oc1ccc(Cl)cc1Cl [diethylaminoethyl 2-(2,4-dichlorophenoxy)benzeneacetate.AcOH]	20	280 ± 50	1500	0.2		50	59	14.2	37.22 ± 0.06	36.65 ± 0.06	36.58 ± 0.08	36.56 ± 0.07	
CC(=O)O.CCN(CC)CCOC(=O)C(C)c1ccc2c(c1)C(=O)Cc1cc(C)ccc1O2 (centres unmarked) [diethylaminoethyl 2-(8-methyl-10, 11-dihydro-11-oxodibenz(b,f)oxepin-2-yl)propionate.AcOH]	2000	250 ± 50	4100			50	61	13.8	37.26 ± 0.07	36.80 ± 0.06	36.70 ± 0.05	36.57 ± 0.08	
CC(=O)O.CCN(CC)CCOC(=O)C(C)c1ccc2c(c1)CC(=O)c1ccccc1S2 (centres unmarked) [diethylaminoethyl 2-(10, 11-dihydro-10-oxodibenzo(b,f)thiepin-2-yl)propionate.AcOH]	2000		3700		480 ± 180	50	59	14.2	37.25 ± 0.06	36.71 ± 0.05	36.65 ± 0.08	36.64 ± 0.07	
CC(=O)O.CCN(CC)CCOC(=O)c1ccccc1Nc1cccc(C)c1C [diethylaminoethyl 2-[(2,3-dimethylphenyl)amino]benzoate.AcOH]	20		2100	0.9	650 ± 250	50			37.35 ± 0.06	36.71 ± 0.05	36.60 ± 0.08	36.59 ± 0.07	% (rate of writhing inhibition) (mice; [6]): 55%; No. of Writhing (mice; [6]): 15.6
CC(=O)O.CCN(CC)CCOC(=O)c1ccccc1Nc1c(Cl)ccc(C)c1Cl [diethylaminoethyl 2-[(2,6-dichloro-3-methylphenyl)amino]benzoate.AcOH]	20		2000	1.0	490 ± 150	50			37.28 ± 0.06	36.68 ± 0.05	36.62 ± 0.08	36.58 ± 0.07	% (rate of writhing inhibition) (mice; [6]): 59%; No. of Writhing (mice; [6]): 14.2
CC(=O)O.CCN(CC)CCOC(=O)Cc1cn(-c2ccccc2)nc1-c1ccc(Cl)cc1 [diethylaminoethyl 3-(4-chlorophenyl)-1-phenyl-1H-pyrazole-4-acetate.AcOH]	20			1.2		50	57	15.2	37.22 ± 0.07	36.82 ± 0.06	36.80 ± 0.05	36.77 ± 0.08	lesions similar to psoriasis (Chinese white rabbits): the lesions were resolved
N-(2-thiazolyl)-4-N,N-dimethylaminobutyryloxy-2-methyl-2H,1,2-benzothiazine-3-carboxamide 1,1-dioxide.HCl	20		1500	0.67	690 ± 250	50							% (rate of writhing inhibition) (mice; [4]): 55%; No. of Writhing (mice; [4]): 15.7; body temperature, t = 0 min (rats; 25 mg/kg transdermally): 37.50 ± 0.07; body temperature, t = 90 min (rats; 25 mg/kg transdermally): 36.61 ± 0.04; body temperature, t = 180 min (rats; 25 mg/kg transdermally): 36.50 ± 0.07; body temperature, t = 270 min (rats; 25 mg/kg transdermally): 36.60 ± 0.05
